These are literature values, as cited in patent US6538179B1, “Enhanced starch biosynthesis in seeds” (Monsanto Technology LLC, priority 1990, dated 2003).

The data set deals with plant ADPGPP (Solanum tuberosum, UniProt P23509+Q00081).

SMILES strings stand for the structures.

Chain of plant ADPGPP (Q00081 whole entry): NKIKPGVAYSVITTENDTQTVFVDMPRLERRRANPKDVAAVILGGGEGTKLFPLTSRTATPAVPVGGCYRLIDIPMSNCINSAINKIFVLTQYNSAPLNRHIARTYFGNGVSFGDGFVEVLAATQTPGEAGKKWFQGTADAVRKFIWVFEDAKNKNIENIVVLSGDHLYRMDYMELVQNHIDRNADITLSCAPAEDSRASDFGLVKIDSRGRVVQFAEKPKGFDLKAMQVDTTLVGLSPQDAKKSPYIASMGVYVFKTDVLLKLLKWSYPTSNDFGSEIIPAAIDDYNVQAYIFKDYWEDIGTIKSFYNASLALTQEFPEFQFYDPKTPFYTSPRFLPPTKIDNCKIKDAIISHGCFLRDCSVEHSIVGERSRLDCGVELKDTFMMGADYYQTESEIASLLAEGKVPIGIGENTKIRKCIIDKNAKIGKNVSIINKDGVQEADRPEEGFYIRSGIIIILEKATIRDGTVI
Chain of plant ADPGPP (P23509 73-521): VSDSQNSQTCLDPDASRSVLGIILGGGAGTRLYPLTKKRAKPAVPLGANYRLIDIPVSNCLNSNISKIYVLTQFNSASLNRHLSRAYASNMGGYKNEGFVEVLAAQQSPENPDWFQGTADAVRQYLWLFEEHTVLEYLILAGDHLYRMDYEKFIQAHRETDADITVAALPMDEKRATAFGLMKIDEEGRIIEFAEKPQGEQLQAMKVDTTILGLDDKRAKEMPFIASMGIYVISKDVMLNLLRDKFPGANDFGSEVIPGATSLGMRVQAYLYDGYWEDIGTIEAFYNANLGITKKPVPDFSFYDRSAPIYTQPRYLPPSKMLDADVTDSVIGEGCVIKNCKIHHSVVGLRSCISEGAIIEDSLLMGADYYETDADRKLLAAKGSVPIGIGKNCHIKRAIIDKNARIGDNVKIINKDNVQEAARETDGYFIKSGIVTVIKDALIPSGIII

Turning to `O=C(O)[C@H](O)COP(=O)(O)O` [3-PGA, 3-phosphoglycerate], the EC50 (activation of ADPGPP by 3-PGA, read-out: A0.5) is 75 µM. On to `O=P(O)(O)O` [Pi, inorganic phosphate], for which, where the note is “read-out: I0.5, inhibition of ADPGPP by Pi”, the IC50 is 45 µM.
